Source: patent publication US20120258938A1, “Enzymatic Production or Chemical Synthesis and Uses for 5,7-Dienes and UVB Conversion Products Thereof” (priority 2008, published 2012)
Each block holds one compound with its values, some of them ahead of it.

Columns and labels:
[1] = tested on: CYP27B1; assay: Real-time RT PCR CYP27B1 mRNA, normal epidermal keratinocytes; assay type: cell-based, human; conditions: 10^−8 M
Experimental: (§1) RNA was extracted using an Absolutely RNA RT-PCR Miniprep Kit (Stratagene, La Jolla, Calif.). Real time PCR and reverse transcription products were purchased from Applied Biosystems, Foster City, Calif. Reverse transcription was performed using Taqman® Reverse Transcription Reagents. The following PCR products were used: cytokeratin 14: Hs00265033_m1, involucrin: Hs00846307_s1, CYP27A1: Hs00168003_ml, CYP27B1: Hs00168017_ml, 18SrRNA: Hs99999901_s1. The reaction was performed with Taqman® Universal PCR Master Mix; data were collected on an ABI Prism 7700 and analyzed on Sequence Detector 1.9.1. Specific gene amounts were related to 18SrRNA by comparative CT method.

[2] = tested on: human dermal fibroblast line; assay: TGF-b1 induced hyaluronan synthesis by dermal fibroblasts; assay type: cell-based
Source text: There were found no significant differences in fibroblast numbers per well and no significant differences in trypan blue exclusion between control wells vs those with secosteroids range 95-100% (data not shown).

[3] = tested on: CYP27A1; assay: Real-time RT PCR CYP27A1 mRNA, normal epidermal keratinocytes; assay type: cell-based, human; conditions: 10^−8 M
Experimental: as §1

[4] = tested on: CYP24 promoter; assay: CYP24-Luc reporter in normal epidermal keratinocytes; assay type: cell-based, human; conditions: 24 h
Source text: The CYP24-Luc construct was a generous gift from Dr Tai Cheng (Boston University Medical Campus, Core Lab Director). It was originally developed by Vaisanen et al. (27). The details of the pLuc construct have been described previously (28-29). Normal epidermal keratinocytes were transfected using Lipofectamine Plus (Invitrogen, Carlsbad, Calif.) in Epilife medium with firefly luciferase reporter gene plasmid and with phRL-TK (expresses Renilla luciferase and serves as normalization control; Promega, Madison, Wis.). After transfection, cells were incubated for 24 hours in EpiLife medium with HKGS. Cells were then transferred to fresh media containing the compounds to be tested or vehicle (ethanol) and incubated for 24 hours. The firefly luciferase and Renilla luciferase signals were recorded with a TD-20/20 luminometer (Turner Designs, Sunnyvale, Calif.); background luminescence was subtracted and the resulting promoter-specific firefly signal was divided by the Renilla signal (proportional to the number of transfected cells). The values obtained were divided by the mean of control (untreated) cells.

[5] = tested on: normal epidermal keratinocytes; assay: Flow cytometry DNA content, normal epidermal keratinocytes; assay type: cell-based, human; conditions: 10 nM
[6] = tested on: involucrin; assay: Real-time RT PCR involucrin mRNA, normal human epidermal keratinocytes; assay type: cell-based; conditions: 10^−8 M
Experimental: as §1

[7] = tested on: HaCaT keratinocytes; assay: Forward and side scatter (cell size, granularity) of HaCaT keratinocytes; assay type: cell-based, human; conditions: for Forward scatter [mean signal intensity] / Side scatter [mean signal intensity]: HaCaT keratinocytes, 10^−8 M, 24 h; for Forward scatter [mean signal intensity]: reflects cell size; for Side scatter [mean signal intensity]: reflects granularity; for forward and side scatter: result in words (Table 13)
Experimental: The FL-1 signal (collected from 10,000 events in side scatter/forward scatter window after debris exclusion) was recorded. Forward (relative to cell size) and side (relative to cell granularity) scatter histograms were generated and mean signal intensity was recorded. FL-1 signal values are presented as dMFI (difference between mean fluorescence intensity of sample stained with specific and isotype control antibody). Scatter signal values are presented as MSI (mean signal intensity). Signal intensities were analyzed with Cell Quest (BD Biosciences, San Diego, Calif.) and graphical representations of the FL-1 signal were prepared with WinMdi 2.8 (shareware from Joseph Trotter, The Scripps Research Institute, San Diego, Calif.).

[8] = tested on: VDRE; assay: VDRE-Luc reporter (with siRNA) in HaCaT keratinocytes; assay type: cell-based, human; conditions: 24 h
Experimental: HaCaT keratinocytes were transfected with VDRE-Luc (gift from Dr. That Chen (27) and with scrambled or VDR siRNA (Dharmacon, Inc., Lafayette, Mo., on-Target plus smart pool human VDR L-003448-00, on-Target plus siControl non-targeting pool D-001810-10-05) using Lipofectamine Plus (Invitrogen, Carlsbad, Calif.) in DMEM medium. PhRL-TK (expresses Renilla luciferase) served as a normalization control; Promega, Madison, Wis.). After transfection, cells were incubated for 24 hours in DMEM with 5% FBS. Cells were then transferred to fresh media containing the compounds to be tested or vehicle (ethanol) and incubated for 24 hours. Levels of VDR and beta-actin 24 h after transfection were assessed with Western blot (VDR(D-6) antibody, sc-13133, 1:400, Santa Cruz, Inc., Santa Cruz, Calif.) performed as described previously (30.).
Construct CYP24-Luc and VDRE-Luc constructs were a generous gift from Dr. Tai Cheng, Ph.D. (Boston University Medical Campus, Core Lab Director). It was originally developed by Vaisanen et al. (27). PLuc and NFκB-Luc construct was described previously (28-29). huVDR construct was a generous gift from Dr. D. Bikle. HaCaT keratinocytes were transfected with NFκB-Luc, CYP-24-Luc, VDRE-Luc and hVDR constructs using Lipofectamine Plus (Invitrogen, Carlsbad, Calif.) in DMEM medium with firefly luciferase reporter gene plasmid and with phRL-TK.

[9] = tested on: SK Mel 188 human melanoma cells; assay: Soft agar colony formation, SKMEL 188 melanoma; assay type: cell-based
Experimental: Growth and survival of prostate cancer cells (PC3) and melanoma cells SKMEL 188 and AbC1 was determined by following their ability to form colonies in soft agar. Cells growing in monolayer culture were trypsinized and resuspended (1,000 cells/well) in 0.25 ml medium containing 0.4% agarose and 5% charcoal stripped serum (HyClone).
Cell suspensions were added to 0.8% agar layer in 24 well plates. […] Each condition was tested in quadruplicate. An ethanol solvent control (amount of ethanol equivalent to test) as well as a media-only control was included in the assay. Cells were allowed to grow at 37° with 5% CO2 over two weeks with secosteroids in fresh media (100 μL) being added after every 72 h. Soft agar colonies were scored and stained with 0.5 mg/ml MTT reagent (Promega), 500 μL/well after two weeks. Colonies were then counted under the microscope and number of units was calculated as number of colonies formed divided by the number of cells seeded×100.

[10] = HaCaT, 20-hydroxycholecalciferol at 0.1 nM

Compound: C=C1/C(=C\C=C2/CCC[C@]3(C)[C@@H]([C@H](C)CCCC(C)(C)O)CC[C@@H]23)C[C@@H](O)C[C@@H]1O [1α,25-dihydroxycholecalciferol, (5Z,7E)-9,10-secocholesta-5,7,10(19)-triene-1α,3β,25-triol, reference compound]
- inhibition of CYP27B1 expression ([1]; 1 h): ~1.5 fold
- TGF-b1 induced hyaluronan synthesis ([2]; 10^−10 M): inhibited TGF-b1 induced hyaluronan synthesis
- inhibition of CYP27A1 expression ([3]; 24 h): ~2.9 fold
- stimulation of transcriptional activity of the CYP24 promoter [4]: ~21 fold
- cells in G1/0 ([5]; 24 h): 52±2%
- cells in G2/M ([5]; 24 h): 35±5%
- cells in S phase ([5]; 24 h): 13±7%
- stimulation of involucrin mRNA ([6]; 6 h): ~3.1 fold
- Forward scatter [mean signal intensity] [7]: 122.12 ± 23.98 mean signal intensity
- Side scatter [mean signal intensity] [7]: 143.46 ± 15.76 mean signal intensity
- forward and side scatter ([7]; HaCaT): only the effect on forward scatter was statistically significant
- side scatter, mean signal intensity (MSI) [7, 10]: 219±4

- increase in VDRE-driven luciferase activity ([8]; 10 nM, scrambled siRNA): ~3 fold
Compound: C=C1CC[C@H](O)C/C1=C/C=C1\CCC[C@@]2(C)[C@H]1CC[C@@H]2[C@@](C)(O)CCCC(C)C [20(OH)D3, (5Z,7E)-9,10-secocholesta-5,7,10(19)-triene-3β,20-diol]
- inhibition of CYP27B1 expression ([1]; 1 h): ~4 fold
- inhibition of CYP27B1 expression ([1]; 48 h): ~2 fold
- inhibition of CYP27A1 expression ([3]; 24 h): ~3.5 fold
- inhibition of CYP27A1 expression ([3]; 48 h): ~2.6 fold
- stimulation of transcriptional activity of the CYP24 promoter [4]: ~2.5 fold
- cells in G1/0 ([5]; 48 h): 52±5%
- cells in G2/M ([5]; 48 h): 35±8%
- cells in S phase ([5]; 48 h): 13±12%
- stimulation of involucrin mRNA ([6]; 6 h): 4.7 fold
- stimulation of involucrin mRNA ([6]; 24 h): 1.8 fold
- forward scatter, mean signal intensity (MSI) [7, 10]: 251±2
- side scatter, mean signal intensity (MSI) [7, 10]: 210±6

Compound: C=C1CC[C@H](O)C/C1=C/C=C1\CCC[C@]2(C)[C@@H](C(C)(O)CC(O)CC(C)C)CC[C@@H]12 (stereo partly drawn) [20,23-dihydroxycholecalciferol, (5Z,7E)-9,10-secocholesta-5,7,10(19)-triene-3β,20,23-triol]
- VDRE-Luc activity ([8]; HaCaT, 10 nM and 100 nM): Activation of VDRE
- less colonies bigger than 0.5 mm ([9]; Sk Mel 188, 0.1 nM and 100 nM): approximately 50%
- Forward scatter [mean signal intensity] [7]: 87.74 ± 29.18 mean signal intensity
- Side scatter [mean signal intensity] [7]: 154.4 ± 30 mean signal intensity
- forward and side scatter ([7]; HaCaT): increased significantly both forward and side scatter

Compound: C=C1CC[C@H](O)C/C1=C/C=C1\CCC[C@]2(C)[C@@H](C(C)=O)CC[C@@H]12 [pD3, (5Z,7E)-3β-hydroxy-9,10-secopregna-5,7,10(19)-trien-20-one]
- colony formation on soft agar ([9]; SKMEL-188, dose dependent): suppress colony formation on soft agar
- Hyaluronan CPM/Well (mean ± SEM) × 10^−5 FB ([2]; hrTGF-b1 5 ng/ml, secosteroids at 10^−10M): 135 ± 25 CPM/Well × 10^−5 FB
